Source: patent US20240150301A1, “METHODS OF MODULATING ANDROGEN RECEPTOR CONDENSATES” (ETERN BIOPHARMA (SHANGHAI) CO., LTD., priority 2021, published 2024)

Tests used:
[1] = biological target: T1, AR (Homo sapiens, UniProt P10275); experiment: ARE-luciferase reporter assay in LNCaP cells (DHT-induced); type: cell-based; conditions: 1 nM DHT, 24 h, normalized to cell viability, read-out: LNCaP ARE-luc IC50
T1 sequence (P10275 1-920 T878A): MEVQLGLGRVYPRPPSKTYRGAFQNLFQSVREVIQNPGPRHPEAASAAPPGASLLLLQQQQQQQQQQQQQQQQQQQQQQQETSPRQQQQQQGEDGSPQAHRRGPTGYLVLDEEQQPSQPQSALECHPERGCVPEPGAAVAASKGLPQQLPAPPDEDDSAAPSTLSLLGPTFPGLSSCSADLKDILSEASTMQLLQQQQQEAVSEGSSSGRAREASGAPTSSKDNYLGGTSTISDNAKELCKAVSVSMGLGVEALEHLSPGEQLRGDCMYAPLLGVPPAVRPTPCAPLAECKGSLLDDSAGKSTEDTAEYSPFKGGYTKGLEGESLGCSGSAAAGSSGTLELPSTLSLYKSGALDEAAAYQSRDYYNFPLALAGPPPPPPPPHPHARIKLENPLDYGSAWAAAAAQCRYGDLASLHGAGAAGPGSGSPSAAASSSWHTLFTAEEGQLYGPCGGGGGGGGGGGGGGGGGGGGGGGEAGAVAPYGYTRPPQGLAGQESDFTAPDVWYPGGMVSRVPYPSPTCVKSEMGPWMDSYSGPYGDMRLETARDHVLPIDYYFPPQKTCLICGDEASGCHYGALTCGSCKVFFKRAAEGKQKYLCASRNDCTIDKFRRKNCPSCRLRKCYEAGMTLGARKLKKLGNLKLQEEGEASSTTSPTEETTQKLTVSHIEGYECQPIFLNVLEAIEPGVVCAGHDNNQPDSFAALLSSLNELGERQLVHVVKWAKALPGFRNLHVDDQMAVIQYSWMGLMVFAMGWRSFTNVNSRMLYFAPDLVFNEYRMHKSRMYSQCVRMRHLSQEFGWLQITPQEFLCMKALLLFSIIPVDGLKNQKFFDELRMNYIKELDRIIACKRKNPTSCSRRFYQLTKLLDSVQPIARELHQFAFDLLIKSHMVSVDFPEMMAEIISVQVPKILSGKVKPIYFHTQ
Method: The ARE-luciferase reporter plasmid contains functional AREs (androgen response elements) to which AR binds in response to androgen to induce luciferase activity. LNCaP (Cobioer) cells were transiently transfected with the ARE-luciferase reporter in charcoal stripped FBS/phenol red-free RPMI medium prior to treatment for 24 hours. Then DMSO or test compounds with serial diluted concentrations were added one hour prior to the addition of DHT(1 nM). After 24 h of incubation with DHT, cells were lysed and luciferase activity was assayed using the ONE-Glo™ Luciferase Assay System (Promega) and measured using EnVision Multimode Plate Reader, according to manufacturer's instructions. Values were normalized to cell viability determined by CellTiter-Glo® Luminescent Cell Viability Assay Kit (Promega). […] GraphPad Prism graphing software was used to calculate IC50 values.

[2] = tested on: AR or AR-V7 downstream target genes; experiment: AR/AR-V7 target gene qPCR assay in 22Rv1 cells; type: cell-based, human; conditions: 22Rv1, 48 h, RT-qPCR
Method: To evaluate the effect of exemplary compounds on mRNA expression of AR or AR-V7 downstream target genes, real-time quantitative PCR measurements were performed in prostate cancer cell line 22Rv1 expressing both AR and AR-V7.
22Rv1 cells were cultured in charcoal stripped FBS/phenol red-free RPMI medium for 24 h, and then treated with DMSO or test compounds for additional 48 h prior to RT-qPCR. Briefly, RNA was isolated from cells using RNeasy Mini Kit (Qiagen) following the manufacturer's protocol. RNA was reverse transcribed and subjected to qPCR using PowerUp™ SYBR™ Green Master Mix (Applied Biosystems). The relative quantity of the target genes was calculated using the ΔΔCt method by comparing Ct of the target genes and mean Ct of the housekeeping gene GAPDH.

[3] = tested on: LNCaP cells; experiment: Cell proliferation assay (CellTiter-Glo), LNCaP; type: cell-based; conditions: Homo sapiens, 96 h, 0.2 nM DHT, 4 days, read-out: LNCaP IC50 AR-positive (cell proliferation)
Method: To evaluate the effect of exemplary compounds on proliferation of AR/AR-V7-dependent prostate cancer cells, cell viability assay was performed in LNCaP (AR-positive), 22Rv1 (AR-positive; AR-V7 positive), VCaP (AR-positive; AR-V7 positive), and DU145 (AR-negative) cells, respectively.
LNCaP cells were seeded in charcoal stripped FBS/phenol red-free RPMI medium in 96-well plates for 24 h before pretreating for 1 h with test compounds prior to addition of 0.2 nM DHT for 4 days. 22Rv1 or VCaP cells were cultured in charcoal stripped FBS/phenol red-free RPMI medium for 24 h before addition of test compounds for 4 days. DU145 cells were seeded in complete medium for 24 h before addition of test compounds for 4 days. Cell proliferation was measured with CellTiter-Glo® Luminescent Cell Viability Assay (Promega). In LNCaP cells, DHT-dependent cell growth is calculated by measuring the difference between vehicle control (DMSO) cells treated with or without 0.2 nM DHT. The IC50 values were determined using the four parameter fit via GraphPad Prism graphing software.

IC50 [3] [µM] | SMILES | IC50 [1] [µM] | mRNA expression of target genes of either AR or AR-V7 [2]
0.86 | CC(C)(c1ccc(OCc2ccnc(N=S3(=O)CCNCC3)n2)cc1)c1cc(Cl)c(OCCCl)c(C#N)c1 [Compound 6, 3-chloro-2-(2-chloroethoxy)-5-(2-(4-((2-((1-oxido-1λ^6-thiomorpholin-1-ylidene)amino)pyrimidin-4-yl)methoxy)phenyl)propan-2-yl)benzonitrile] | 3.5 | inhibited mRNA expression
 | CC(C)(c1ccc(C#Cc2cnc(NS(C)(=O)=O)nc2)cc1)c1cc(Cl)c(OCCCl)c(C#N)c1 [Compound 60, N-(5-((4-(2-(3-chloro-4-(2-chloroethoxy)-5-cyanophenyl)propan-2-yl)phenyl)ethynyl)pyrimidin-2-yl)methanesulfonamide] | 4.7 | 
7.01 | CC(C)(c1ccc(OCc2ccnc(NS(C)(=O)=O)n2)cc1)c1cc(Cl)c(OCCCl)c(C#N)c1 [Compound AA, N-(4-((4-(2-(3-chloro-4-(2-chloroethoxy)-5-cyanophenyl)propan-2-yl)phenoxy)methyl)pyrimidin-2-yl) methane sulfonamide, reference compound] | 12.6 | inhibited mRNA expression
